Assay results: publication PMC9596378, “Discovery and molecular basis of subtype-selective cyclophilin inhibitors” (Nature Chemical Biology, 2022)
Values joined by “and” are separate entries in the source; they are usually repeats but may differ in a detail not shown here. Identical values can stand only once. Like-named read-outs stand apart in the source and are kept apart here. One block for each molecule: values may come before it.

Assays:
CypD = CypD (Homo sapiens, UniProt P30405); assay: Chymotrypsin coupled prolyl-isomerase assay; details: for CypD prolyl-isomerase assay raw dose-response value: Fig. 3b source data, replicates
PPWD1 = molecular target: T1, PPWD1 (Homo sapiens, UniProt Q96BP3); assay: Chymotrypsin coupled prolyl-isomerase assay; format: biochemical; details: for PPWD1 prolyl-isomerase assay raw dose-response value: Fig. 3b source data, replicates
T1 construct: PPWD1 (UniProtKB Entry Q96BP3: residues 473–646); host or cells: E. coli BL21(DE3)
T1 sequence (Q96BP3 473-646): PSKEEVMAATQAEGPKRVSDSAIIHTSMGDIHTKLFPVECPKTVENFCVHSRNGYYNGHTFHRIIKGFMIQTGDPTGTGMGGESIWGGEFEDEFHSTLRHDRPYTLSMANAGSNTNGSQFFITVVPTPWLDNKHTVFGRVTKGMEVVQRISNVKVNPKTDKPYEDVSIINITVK

NKTR = molecular target: T2, NKTR (Homo sapiens, UniProt P30414); assay: Chymotrypsin coupled prolyl-isomerase assay; format: biochemical; details: for NKTR prolyl-isomerase assay raw dose-response value: Fig. 3b source data, replicates
T2 construct: NKTR (UniProtKB Entry P30414: residues 7–179); host or cells: E. coli BL21(DE3)
T2 sequence (P30414 7-179): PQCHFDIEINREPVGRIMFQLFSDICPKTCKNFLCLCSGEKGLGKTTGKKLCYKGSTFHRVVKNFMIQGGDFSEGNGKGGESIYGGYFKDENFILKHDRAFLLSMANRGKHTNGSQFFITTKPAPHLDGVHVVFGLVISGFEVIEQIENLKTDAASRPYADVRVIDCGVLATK
Method: Adapting a previously described protocol[51], with an Agilent Bravo Velocity 11 with a 384ST head, 90 µL assay buffer (25 mM HEPES pH 7.3, 100 mM NaCl, 0.01% Triton X-100) containing 5.28 nM cyclophilin was added into a flat, clear-bottom, black 384-well plate pre-chilled in a Corning CoolBox at 2–3 °C. Five microliters of compound pre-dissolved in 5% DMSO/assay buffer was then added to appropriate wells and incubated at 2–3 °C for 5 min. Five microliters of 0.5 mM α-chymotrypsin from bovine pancreas (Type II, lyophilized powder, Millipore-Sigma) in 20% 1 mM HCl/Assay Buffer was then added to each well and incubated at 2–3 °C for 5 min. […] Using the internal liquid handling system of the FLIPR, 1 µL 0.5 mM Suc-AAPF-AMC (Chymotrypsin Substrate II, Millipore-Sigma) dissolved in 0.55 M LiCl/2,2,2-trifluoroethanol was added to each well, which was then mixed for 5 s, followed by immediate fluorescence measurements every 1 s for 330 s using a 360–380 nm excitation LED module and a 400–460 nm emission filter. Final concentrations of the plate include 5 nM cyclophilin, 0.25% DMSO, 25 µM α-chymotrypsin, 5 µM Suc-AAPF-AMC. Raw fluorescence data was analyzed by non-linear regression analysis with Prism v.9 by fitting one-phase association curves to each well. Analyses were halted after the calculated maximum fluorescent value owing to observed fluorescent bleaching during the sustained fluorescent plateau. Rate constants calculated for each well (s^−1) were then normalized to substrate only (no prolyl-isomerase) and enzyme + substrate only controls. IC50 values were calculated as the value at which 50% inhibition was achieved on the non-linear regression fitted curve of each compound.

PPIL1 = molecular target: T3, PPIL1 (Homo sapiens, UniProt Q9Y3C6); assay: Chymotrypsin coupled prolyl-isomerase assay; format: biochemical; details: for PPIL1 prolyl-isomerase assay raw dose-response value: Fig. 3b source data, replicates; for IC50: wild-type PPIL1, read-out: Wild-Type Cyclophilin Prolyl Isomerase Inhibition IC50 Values, PPIL1
T3 construct: PPIL1 (UniProtKB Entry Q9Y3C6: residues 1–166); made in house; host or cells: E. coli BL21(DE3)
T3 sequence (Q9Y3C6 1-166): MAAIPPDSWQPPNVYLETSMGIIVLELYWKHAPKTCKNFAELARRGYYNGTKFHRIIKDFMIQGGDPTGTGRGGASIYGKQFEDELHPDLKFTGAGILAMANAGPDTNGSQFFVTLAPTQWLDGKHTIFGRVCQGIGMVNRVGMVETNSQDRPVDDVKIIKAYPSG

Cyp40 = Cyp40 (Homo sapiens, UniProt Q08752); assay: Chymotrypsin coupled prolyl-isomerase assay; details: for Cyp40 prolyl-isomerase assay raw dose-response value: Fig. 3b source data, replicates
How it was run: (§1)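 Chymotrypsin-coupled cis–trans isomerization of Suc-AAPF-AMC (5 µM) catalysed by 5 nM cyclophilin, run cold (2–3 °C) at pH 7.3 with 5 min compound preincubation.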

CypB = molecular target: T4, CypB (Homo sapiens, UniProt P23284); assay: biochemical; details: for CypB prolyl-isomerase assay raw dose-response value: Fig. 3b source data, replicates
T4 construct: PPIB (UniProtKB Entry P23284: residues 34–216); His6 with TEV site (2BT vector leader) (N); made in house; host or cells: E. coli BL21(DE3)
How it was run: as §1

[1] = wild-type PPWD1, read-out: Wild-Type Cyclophilin Prolyl Isomerase Inhibition IC50 Values, PPWD1
[2] = wild-type NKTR, read-out: Wild-Type Cyclophilin Prolyl Isomerase Inhibition IC50 Values, NKTR
[3] = Wild-Type Cyclophilin Prolyl Isomerase Inhibition IC50 Values, Cyp40, wild-type Cyp40
[4] = wild-type CypB, read-out: Wild-Type Cyclophilin Prolyl Isomerase Inhibition IC50 Values, CypB

Chain of CypD (P30405 45-207): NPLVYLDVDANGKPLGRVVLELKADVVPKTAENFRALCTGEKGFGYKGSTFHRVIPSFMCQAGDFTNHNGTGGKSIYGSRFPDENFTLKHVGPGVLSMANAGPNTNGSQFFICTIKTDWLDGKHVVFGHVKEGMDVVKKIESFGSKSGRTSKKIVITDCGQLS
T4 sequence (P23284 34-216): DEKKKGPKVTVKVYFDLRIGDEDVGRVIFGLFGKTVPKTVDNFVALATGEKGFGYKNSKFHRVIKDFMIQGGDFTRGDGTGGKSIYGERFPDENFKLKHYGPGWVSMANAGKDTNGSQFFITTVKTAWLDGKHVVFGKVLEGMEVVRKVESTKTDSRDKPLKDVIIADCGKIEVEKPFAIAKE
Chain of Cyp40 (Q08752 1-183): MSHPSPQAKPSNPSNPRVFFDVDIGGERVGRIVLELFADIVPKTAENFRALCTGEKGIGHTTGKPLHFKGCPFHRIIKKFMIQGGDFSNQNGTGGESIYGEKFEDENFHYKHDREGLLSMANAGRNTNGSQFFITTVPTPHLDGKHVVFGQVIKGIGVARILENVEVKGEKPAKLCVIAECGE

SMILES: NCCOCCNC(=O)[C@@H]1CCNC(=O)/C=C/C(=O)N2CCC[C@](Cc3ccccc3)(C2)C(=O)N[C@@H](Cc2ccc(-c3ccc(C#CC(=O)O)cc3)cc2)C(=O)NCc2ccccc2CC(=O)N1 [Compound B25]
IC50 (CypD): 3 nM | CypD prolyl-isomerase assay raw dose-response value (CypD; Dose 0.000457247 µM): 0.0674 and 0.06729 and 0.07005 | CypD prolyl-isomerase assay raw dose-response value (CypD; Dose 0.00137174 µM): 0.06909 and 0.05826 and 0.0465 | CypD prolyl-isomerase assay raw dose-response value (CypD; Dose 0.00411523 µM): 0.04183 and 0.04697 and 0.03133 | CypD prolyl-isomerase assay raw dose-response value (CypD; Dose 0.0123457 µM): 0.02432 and 0.02391 and 0.02276 | CypD prolyl-isomerase assay raw dose-response value (CypD; Dose 0.037037 µM): 0.01562 and 0.01516 and 0.01481 | CypD prolyl-isomerase assay raw dose-response value (CypD; Dose 0.111111 µM): 0.01259 and 0.0133 and 0.01227 | CypD prolyl-isomerase assay raw dose-response value (CypD; Dose 0.333333 µM): 0.01238 and 0.01154 and 0.0111 | CypD prolyl-isomerase assay raw dose-response value (CypD; Dose 1 µM): 0.01437 and 0.01145 and 0.01083 | PPWD1 prolyl-isomerase assay raw dose-response value (PPWD1; Dose 0.0228624 µM): 0.03895 and 0.0361 and 0.043 | PPWD1 prolyl-isomerase assay raw dose-response value (PPWD1; Dose 0.0685871 µM): 0.04294 and 0.03257 and 0.04643 | PPWD1 prolyl-isomerase assay raw dose-response value (PPWD1; Dose 0.205761 µM): 0.03704 and 0.0362 | PPWD1 prolyl-isomerase assay raw dose-response value (PPWD1; Dose 0.617284 µM): 0.03731 (2×) and 0.0336 | PPWD1 prolyl-isomerase assay raw dose-response value (PPWD1; Dose 1.85185 µM): 0.03718 and 0.0343 and 0.0411 | PPWD1 prolyl-isomerase assay raw dose-response value (PPWD1; Dose 5.55556 µM): 0.03268 and 0.0311 and 0.02851 | PPWD1 prolyl-isomerase assay raw dose-response value (PPWD1; Dose 16.6667 µM): 0.02501 and 0.02576 and 0.02254 | PPWD1 prolyl-isomerase assay raw dose-response value (PPWD1; Dose 50 µM): 0.01888 and 0.01599 and 0.01588 | IC50 (PPWD1; prolyl-isomerase inhibition, 5 nM cyclophilin, read-out: IC50 PPWD1): ~10000 nM | IC50 (PPWD1; [1]): 10000 nM | NKTR prolyl-isomerase assay raw dose-response value (NKTR; Dose 0.0228624 µM): 0.03241 and 0.03231 and 0.03444 | NKTR prolyl-isomerase assay raw dose-response value (NKTR; Dose 0.0685871 µM): 0.03299 and 0.03067 and 0.03202 | NKTR prolyl-isomerase assay raw dose-response value (NKTR; Dose 0.205761 µM): 0.03236 and 0.03203 | NKTR prolyl-isomerase assay raw dose-response value (NKTR; Dose 0.617284 µM): 0.03089 and 0.03188 and 0.03316 | NKTR prolyl-isomerase assay raw dose-response value (NKTR; Dose 1.85185 µM): 0.03191 and 0.03168 and 0.03161 | NKTR prolyl-isomerase assay raw dose-response value (NKTR; Dose 5.55556 µM): 0.03134 and 0.03255 and 0.03129 | NKTR prolyl-isomerase assay raw dose-response value (NKTR; Dose 16.6667 µM): 0.03138 and 0.0295 and 0.03008 | NKTR prolyl-isomerase assay raw dose-response value (NKTR; Dose 50 µM): 0.02697 and 0.02369 and 0.02457 | IC50 (NKTR; [2]): > 50000 nM | PPIL1 prolyl-isomerase assay raw dose-response value (PPIL1; Dose 0.0228624 µM): 0.0374 and 0.04134 and 0.04686 | PPIL1 prolyl-isomerase assay raw dose-response value (PPIL1; Dose 0.0685871 µM): 0.02743 and 0.02671 and 0.02724 | PPIL1 prolyl-isomerase assay raw dose-response value (PPIL1; Dose 0.205761 µM): 0.01848 and 0.01869 | PPIL1 prolyl-isomerase assay raw dose-response value (PPIL1; Dose 0.617284 µM): 0.01432 and 0.01378 and 0.01288 | PPIL1 prolyl-isomerase assay raw dose-response value (PPIL1; Dose 1.85185 µM): 0.01263 and 0.01274 and 0.01211 | PPIL1 prolyl-isomerase assay raw dose-response value (PPIL1; Dose 5.55556 µM): 0.01183 and 0.01164 and 0.01059 | PPIL1 prolyl-isomerase assay raw dose-response value (PPIL1; Dose 16.6667 µM): 0.01229 and 0.01158 and 0.01139 | PPIL1 prolyl-isomerase assay raw dose-response value (PPIL1; Dose 50 µM): 0.01421 and 0.01181 and 0.01108 | IC50 (PPIL1): 20 nM | Cyp40 prolyl-isomerase assay raw dose-response value (Cyp40; Dose 0.00457247 µM): 0.06429 and 0.05599 and 0.07223 | Cyp40 prolyl-isomerase assay raw dose-response value (Cyp40; Dose 0.0137174 µM): 0.05813 and 0.05507 and 0.05318 | Cyp40 prolyl-isomerase assay raw dose-response value (Cyp40; Dose 0.0411523 µM): 0.04821 and 0.05825 and 0.0731 | Cyp40 prolyl-isomerase assay raw dose-response value (Cyp40; Dose 0.123457 µM): 0.04592 and 0.05196 and 0.05288 | Cyp40 prolyl-isomerase assay raw dose-response value (Cyp40; Dose 0.37037 µM): 0.03591 and 0.03468 and 0.03748 | Cyp40 prolyl-isomerase assay raw dose-response value (Cyp40; Dose 1.11111 µM): 0.02292 and 0.02127 and 0.02239 | Cyp40 prolyl-isomerase assay raw dose-response value (Cyp40; Dose 3.33333 µM): 0.01681 and 0.01439 and 0.01521 | Cyp40 prolyl-isomerase assay raw dose-response value (Cyp40; Dose 10 µM): 0.01651 and 0.01201 and 0.01273 | IC50 (Cyp40; [3]): 210 nM | IC50 (CypB; CypB (comparator for CypB E121S), read-out: Mutant Cyclophilin Prolyl Isomerase Inhibition IC50 Values, CypB): 11 nM | CypB prolyl-isomerase assay raw dose-response value (CypB; Dose 0.000457247 µM): 0.06463 and 0.04091 and 0.06594 | CypB prolyl-isomerase assay raw dose-response value (CypB; Dose 0.00137174 µM): 0.06615 and 0.04875 and 0.05304 | CypB prolyl-isomerase assay raw dose-response value (CypB; Dose 0.00411523 µM): 0.04683 and 0.04984 | CypB prolyl-isomerase assay raw dose-response value (CypB; Dose 0.0123457 µM): 0.03647 and 0.03228 and 0.03371 | CypB prolyl-isomerase assay raw dose-response value (CypB; Dose 0.037037 µM): 0.02322 and 0.02268 and 0.02146 | CypB prolyl-isomerase assay raw dose-response value (CypB; Dose 0.111111 µM): 0.01709 and 0.01633 and 0.0158 | CypB prolyl-isomerase assay raw dose-response value (CypB; Dose 0.333333 µM): 0.01481 and 0.01358 and 0.01262 | CypB prolyl-isomerase assay raw dose-response value (CypB; Dose 1 µM): 0.01394 and 0.01269 and 0.01205 | IC50 (CypB; prolyl-isomerase inhibition, 5 nM cyclophilin, read-out: IC50 CypB): 11 ± 3 nM | IC50 (CypB; [4]): 11 nM

SMILES: NCCCc1ccc(-c2ccc(C[C@@H]3NC(=O)[C@]4(Cc5ccccc5)CCCN(C4)C(=O)/C=C/C(=O)NCC[C@@H](C(=O)NCCOCCN)NC(=O)Cc4ccccc4CNC3=O)cc2)cc1 [Compound B32]
IC50 (CypD): 6000 nM | reduction in potency for CypD on replacing the carboxylate with an amine (CypD): 500- to 1,000 fold | IC50 (PPWD1; [1]): 800 nM | IC50 (NKTR; [2]): > 50000 nM | IC50 (PPIL1): 2000 nM | IC50 (Cyp40; [3]): 4000 nM | IC50 (CypB; [4]): 3000 nM

IC50 (CypD; read-out: Wild-Type Cyclophilin Prolyl Isomerase Inhibition IC50 Values, CypD, wild-type CypD): 7 nM | IC50 (PPWD1; [1]): > 10000 nM | IC50 (NKTR; prolyl-isomerase inhibition, 5 nM cyclophilin, read-out: IC50 NKTR): ~7000 nM | IC50 (NKTR; [2]): 7000 nM | IC50 (PPIL1): 4000 nM | IC50 (Cyp40; read-out: Wild-Type Cyclophilin Prolyl Isomerase Inhibition IC50 Values, Cyp40, wild-type Cyp40): > 10000 nM | IC50 (CypB; [4]): 400 nM
SMILES: C[N+]1=C(C=CC=CC=C2N(CCCCCC(=O)NCCNC(=O)C3CCNC(=O)C=CC(=O)N4CCCC(Cc5ccccc5)(C4)C(=O)NC(Cc4ccc(-c5ccc(CC(C(=O)O)C(=O)O)cc5)cc4)C(=O)NCc4ccccc4CC(=O)N3)c3ccccc3C2(C)C)C(C)(C)c2ccccc21 (centres unmarked) [Compound B52-Cy5]
